In the Deep4Chem optical property database:
Several values for one entry are separate records, joined by “and”; a condition that tells them apart may be missing. Identical values can stand only once. Values belong to the molecule of their own block, whether it stands above or below them.

Assay: photoluminescence quantum yield (fraction); solvent given as SMILES
[1] = in O=P(c1ccccc1)(c1ccccc1)c1ccccc1Oc1ccccc1P(=O)(c1ccccc1)c1ccccc1

photoluminescence quantum yield (in CS(C)=O): 0.075
SMILES: CCOC(=O)C1=C(N)n2c(=O)c3ccccc3c(=O)n2C1c1cccs1 (stereo not drawn)

photoluminescence quantum yield (in C1CCCCC1): 0.14
photoluminescence quantum yield (in CC#N): 0.18
photoluminescence quantum yield (in CO): 0.37
photoluminescence quantum yield (in O): 0.57
SMILES: Nc1ccc2[nH]ncc2c1

SMILES: CC1(C)c2ccccc2-n2c(-c3ccc(N4c5ccccc5Oc5ccccc54)cc3)nc3cccc1c32
photoluminescence quantum yield (in Cc1ccccc1): 0.31
photoluminescence quantum yield [1]: 0.71

photoluminescence quantum yield (in ClCCl): 0.14
SMILES: O=C(c1sc(-c2ccc(-c3cc(-c4cccs4)c(C(=O)N4CCOCC4)s3)s2)cc1-c1cccs1)N1CCOCC1

photoluminescence quantum yield (in CCCCCC): 0.36
photoluminescence quantum yield (in CS(C)=O): 0.2
SMILES: C1CCN2CCCn3c2c(c2c3=NCCN=2)C1

photoluminescence quantum yield (in ClC(Cl)Cl): 0.98
SMILES: CCCCN1C(=O)c2ccc3c4ccc5c6c(ccc(c7ccc(c2c37)C1=O)c64)C(=O)N(CCCC)C5=O

photoluminescence quantum yield (in ClCCl): 0.31
SMILES: CC(C)(C)c1ccc(-c2cnc3cccc(-c4ccccc4)n23)cc1

SMILES: c1ccc(-c2nc(-c3ccccc3)nc(-c3ccc(-n4c5ccccc5c5ccc6c(c7ccccc7n6-c6ccccc6)c54)cc3)n2)cc1
photoluminescence quantum yield (in O=P(c1ccccc1)(c1ccccc1)c1ccc2oc3ccc(P(=O)(c4ccccc4)c4ccccc4)cc3c2c1): 0.9

photoluminescence quantum yield (in CC#N): 0.2
photoluminescence quantum yield (in CCO): 0.29
photoluminescence quantum yield (in CO): 0.3
photoluminescence quantum yield (in ClC(Cl)Cl): 0.46
SMILES: C[N+]1=C(/C=C/C2=C3Oc4c(cc5c6c4CCCN6CCC5)C(c4ccccc4C(=O)O)=C3CCC2)C(C)(C)c2c1ccc1ccccc21

photoluminescence quantum yield (in CC#N): 0.028
SMILES: Cc1cc2nc3[nH]c(=O)[nH]c(=O)c3nc2cc1C

SMILES: CC1=CC(C)=[N+]2C1=C(c1ccc(N3CCOCC3)cc1)c1c(C)cc(C)n1[B-]2(F)F
photoluminescence quantum yield (in C1CCOC1): 0.011
photoluminescence quantum yield (in CC#N): 0.001
photoluminescence quantum yield (in CC(=O)C(C)(C)C): 0.063
photoluminescence quantum yield (in CC(C)=O): 0.001
photoluminescence quantum yield (in CCCCCC): 0.45
photoluminescence quantum yield (in CCOC(C)=O): 0.029
photoluminescence quantum yield (in CO): 0.002

SMILES: CC1(C)c2cc(/C=C/c3nc(/C=C/c4ccc5c(c4)C(C)(C)c4cc(N(c6ccccc6)c6ccccc6)ccc4-5)nc(/C=C/c4ccc5c(c4)C(C)(C)c4cc(N(c6ccccc6)c6ccccc6)ccc4-5)n3)ccc2-c2ccc(N(c3ccccc3)c3ccccc3)cc21
photoluminescence quantum yield (in Cc1ccccc1): 0.36

photoluminescence quantum yield (in CCOC(C)=O): 0.99
SMILES: CCn1c(-c2ccc(-c3ccc4c(c3)C(C)(C)c3ccccc3-4)cc2)c(-c2ccc3ccccc3c2)c(-c2ccc3ccccc3c2)c1-c1ccc(-c2ccc3c(c2)C(C)(C)c2ccccc2-3)cc1

SMILES: c1ccc(-c2cc(-c3ccc(N4c5ccccc5C(c5ccccc5)(c5ccccc5)c5ccccc54)cn3)nc(-c3ccccc3)n2)cc1
photoluminescence quantum yield [1]: 0.86

SMILES: Cc1cc(C)c(N(c2ccccc2)c2ccc(S(=O)(=O)c3ccc(S(=O)(=O)c4ccc(N(c5ccccc5)c5c(C)cc(C)cc5C)cc4)cc3)cc2)c(C)c1
photoluminescence quantum yield (in Cc1ccccc1): 0.79

photoluminescence quantum yield (in ClCCl): 0.46
SMILES: CC(C)[Si](C#Cc1cc2c3c(c1)c(=C1c4ccccc4Sc4ccccc41)c1cc(C#C[Si](C(C)C)(C(C)C)C(C)C)cc4c1N3c1c(cc(C#C[Si](C(C)C)(C(C)C)C(C)C)cc1c4=C1c3ccccc3Sc3ccccc31)c2=C1c2ccccc2Sc2ccccc21)(C(C)C)C(C)C

photoluminescence quantum yield (in ClC(Cl)Cl): 0.22
SMILES: COc1ccc(-c2nc(-c3ccc(OC)cc3)n3ccccc23)cc1

photoluminescence quantum yield (in CS(C)=O): 0.002
photoluminescence quantum yield (in ClCCl): 0.67
SMILES: CCN(CC)c1ccc2c(c1)oc(=O)c1c(=O)oc3c(C)c4oc(=O)c5c(=O)oc6cc(N(CC)CC)ccc6c5c4cc3c12

photoluminescence quantum yield (in CS(C)=O): 0.26
SMILES: COc1ccc(C2C3=C(CCCC3=O)Nc3c2c(=O)oc2ccccc32)cc1 (stereo not drawn)

photoluminescence quantum yield (in CCO): 0.06
SMILES: CCOC(=O)c1cc(C(=O)NCc2ccccc2)c2ccc(N(C)C)cc2n1

photoluminescence quantum yield (in C1COCCO1): 0.0133
photoluminescence quantum yield (in CC#N): 0.0147
photoluminescence quantum yield (in CCCCO): 0.0231
photoluminescence quantum yield (in CCCO): 0.0164
photoluminescence quantum yield (in CCO): 0.0106
photoluminescence quantum yield (in CCOC(C)=O): 0.0113
photoluminescence quantum yield (in CO): 0.00754
SMILES: Cc1cnc(NC(=O)C2=C(O)c3ccccc3S(=O)(=O)N2C)s1

photoluminescence quantum yield (in C1COCCO1): 0
SMILES: CCC1=C(C2=C(C3=C(CC)S(=O)(=O)c4cc(-c5ccc(CO)cc5)ccc43)C(F)(F)C(F)(F)C2(F)F)c2ccc(-c3ccc(CO)cc3)cc2S1(=O)=O

SMILES: CC(C)c1cc(C(C)C)c(B2c3ccccc3Oc3cc(N4c5ccccc5C(C)(C)c5ccccc54)ccc32)c(C(C)C)c1
photoluminescence quantum yield (in Cc1ccccc1): 1

SMILES: CN(C)c1ccc(/C=C/c2nc3c4ccccc4c4ccccc4c3[nH]2)cc1
photoluminescence quantum yield (in C1CCOC1): 0.055
photoluminescence quantum yield (in C1COCCO1): 0.176
photoluminescence quantum yield (in CC1CCCCC1): 0.195
photoluminescence quantum yield (in CC#N): 0.058
photoluminescence quantum yield (in CCOC(C)=O): 0.048
photoluminescence quantum yield (in CCOCC): 0.147
photoluminescence quantum yield (in CN(C)C=O): 0.04
photoluminescence quantum yield (in COC(C)=O): 0.03
photoluminescence quantum yield (in CS(C)=O): 0.067
photoluminescence quantum yield (in Cc1ccccc1): 0.114
photoluminescence quantum yield (in ClC(Cl)Cl): 0.035

photoluminescence quantum yield (in C1CCOC1): 0.48
photoluminescence quantum yield (in CCCCCC): 0.48
photoluminescence quantum yield (in CO): 0.1
photoluminescence quantum yield (in CS(C)=O): 0.03
photoluminescence quantum yield (in ClC(Cl)Cl): 0.4
photoluminescence quantum yield (in ClCCl): 0.45
SMILES: CC1=[N+]2C(=c3c4c5ccccc5cc5cccc(c6cc(C)n(c36)[B-]2(F)F)c54)C=C1

photoluminescence quantum yield (in ClCCl): 0.55
SMILES: C(#Cc1nc(C#Cc2ccccc2)c(C#Cc2ccccc2)c(C#Cc2ccccc2)c1C#Cc1ccccc1)c1ccccc1

photoluminescence quantum yield (in ClCCl): 0.19
SMILES: N#Cc1ccc(-c2cnc3cccc(-c4ccccc4)n23)cc1

photoluminescence quantum yield (in ClCCl): 0.22
SMILES: CCCCC(CC)COc1cc(OCC(CC)CCCC)c2c#cc3ccc4sc5ccc(c#cc6cc(c#cc7ccc8sc9ccc(c#cc1c2)cc9c8c7)c(C(CCCC)OCCC)cc6C(CCCC)OCCC)cc5c4c3 (stereo not drawn)

photoluminescence quantum yield (in CC#N): 0.22
photoluminescence quantum yield (in ClC(Cl)Cl): 0.34
SMILES: F[B-]1(F)n2c(-c3ccccc3)cc(-c3ccccc3)c2N=C2C(c3ccccc3)=CC(c3ccccc3)=[N+]21

photoluminescence quantum yield (in ClC(Cl)Cl): 0.22
SMILES: CCCCCCN1C(=O)c2cccc3c(-c4sc(-c5ccc6c7c(cccc57)C(=O)N(CCCCCC)C6=O)c5c4OCCO5)ccc(c23)C1=O

photoluminescence quantum yield (in C1CCCCC1): 0.66
SMILES: C[Si](C)(C)c1ccc(C#N)c2ccccc12

photoluminescence quantum yield (in ClCCl): 0.56
SMILES: c1ccc([Si]2(c3ccccc3)c3ccccc3-c3cc4c(cc32)-c2ccccc2[Si]4(c2ccccc2)c2ccccc2)cc1

photoluminescence quantum yield (in C1CCCCC1): 0.001
photoluminescence quantum yield (in CO): 0.001
SMILES: Clc1ccc(/C=C(\c2ccccc2)c2nc3ccccc3s2)cc1

photoluminescence quantum yield (in CN(C)C=O): 0.25
photoluminescence quantum yield (in CO): 0.008
photoluminescence quantum yield (in CS(C)=O): 0.008
photoluminescence quantum yield (in O): 0.005
SMILES: O=C1/C(=C2\Sc3ccc(S(=O)(=O)O)cc3C2=O)Sc2ccc(S(=O)(=O)O)cc21

SMILES: Cc1ccccc1[B-]1(c2ccccc2C)n2nc(C(F)(F)F)cc2-c2c3ccccc3cc[n+]21
photoluminescence quantum yield (in C1CCCCC1): 0.0285
photoluminescence quantum yield (in Cc1ccccc1): 0.0259
photoluminescence quantum yield (in ClCCl): 0.0197

photoluminescence quantum yield (in C1CCOC1): 0.6
SMILES: C(=C\c1cc2ccccc2c2ccccc12)/c1cc2ccccc2c2ccccc12

photoluminescence quantum yield (in O): 0.18
SMILES: CCNc1ccc2c(c1)C(C)(C)C(=O)C=C2

photoluminescence quantum yield (in C1CCCCC1): 0.97
SMILES: c1ccc(-c2c3ccccc3c(-c3ccccc3)c3ccccc23)cc1

photoluminescence quantum yield (in ClCCl): 0.43
SMILES: COC(=O)c1ccc(C2=C(/C=C/c3ccc(OC)cc3)O[B-](F)(F)[O+]=C2/C=C/c2ccc(OC)cc2)cc1

photoluminescence quantum yield (in ClCCl): 0.33
SMILES: c1ccc(-c2cc3cc4cccc5c(-c6ccccc6)cc6cc7cccc2c7c3c6c45)cc1

SMILES: CCCC1=Cc2nc1ccc1[nH]c(cc1CCOC)c1nc(ccc3[nH]c2cc3CCC)C(CCOC)=C1
photoluminescence quantum yield (in Cc1ccccc1): 0.54

photoluminescence quantum yield (in CC#N): 0.38
SMILES: CC1=C2C3=C(CCc4ccccc43)C(C)=[N+]2[B-](F)(F)n2c(C)c3c(c21)-c1ccccc1CC3

SMILES: CN(C)c1ccc(-c2cc(=O)c3ccccc3o2)cc1
photoluminescence quantum yield (in C1CCCCC1): 0.007
photoluminescence quantum yield (in C1CCOC1): 1
photoluminescence quantum yield (in CC#N): 1 and 0.96
photoluminescence quantum yield (in CCOC(C)=O): 1
photoluminescence quantum yield (in CCOCC): 0.87
photoluminescence quantum yield (in CO): 0.095
photoluminescence quantum yield (in Cc1ccccc1): 0.76

photoluminescence quantum yield (in CS(C)=O): 0.82
SMILES: c1ccc(-c2nc3sc4ccccc4c3s2)nc1

photoluminescence quantum yield (in ClCCl): 0.13
SMILES: c1ccc(N(c2ccccc2)c2ccc(N(c3ccccc3)c3ccc4ccc5c(N(c6ccccc6)c6ccc(N(c7ccccc7)c7ccccc7)cc6)ccc6ccc3c4c65)cc2)cc1

photoluminescence quantum yield (in C1CCOC1): 0.4
photoluminescence quantum yield (in CC#N): 0.02
photoluminescence quantum yield (in CCO): 0.01
photoluminescence quantum yield (in CCOC(C)=O): 0.34
photoluminescence quantum yield (in CN(C)C=O): 0.02
photoluminescence quantum yield (in ClCCl): 0.21
photoluminescence quantum yield (in c1ccccc1): 0.74
SMILES: O=C(c1ccc(N(c2ccccc2)c2ccccc2)cc1)[C@H]1[C@H](c2ccc(F)cc2)C[C@](O)(c2ccccn2)C[C@]1(O)c1ccccn1

photoluminescence quantum yield (in CC#N): 0.11
SMILES: c1cc2oc3cccc4oc5cccc6oc(c1)c2[c+](c34)c65

photoluminescence quantum yield (in C1CCOC1): 0.459
SMILES: COc1cc2oc(=O)c3c4ccc(C=O)cc4c4ccc5cccc6c(c1)c2c3c4c56

photoluminescence quantum yield (in C1CCCCC1): 0.5
photoluminescence quantum yield (in CC#N): 0.7
photoluminescence quantum yield (in CO): 0.054
photoluminescence quantum yield (in ClC(Cl)Cl): 0.9
SMILES: CC(=O)c1ccc(-c2nc3ccc(N(C)C)c(Cl)c3s2)cc1

photoluminescence quantum yield (in CC1CCCCC1): 0.51
photoluminescence quantum yield (in CC#N): 0.35
photoluminescence quantum yield (in CO): 0.37
SMILES: COC(=O)C(NC(=O)OC(C)(C)C)c1ccc2oc(-c3cc(OC)ccc3OC)nc2c1 (stereo not drawn)

SMILES: CN(C)c1ccc(/C=C/C=C/c2nc3ccccc3s2)cc1
photoluminescence quantum yield (in CC#N): 0.0068
photoluminescence quantum yield (in CCCCCC): 0.022
photoluminescence quantum yield (in CCCCO): 0.0044
photoluminescence quantum yield (in CCCO): 0.0054
photoluminescence quantum yield (in CCO): 0.0045
photoluminescence quantum yield (in CN(C)C=O): 0.0064
photoluminescence quantum yield (in CO): 0.0039
photoluminescence quantum yield (in Cc1ccccc1): 0.0088
photoluminescence quantum yield (in ClCCl): 0.0054
photoluminescence quantum yield (in OCC(O)CO): 0.039
photoluminescence quantum yield (in OCCO): 0.0062

photoluminescence quantum yield (in O): 0.003
SMILES: CC[n+]1nc2ccc(N(C)C)cc2c2cc(C)ccc21

photoluminescence quantum yield (in CC#N): 0.13
SMILES: Cc1ccc(-c2ccc(/C=C/c3ccc(Br)n3C)cn2)nc1
